Reference: publication PMC8308784, “Novel Purine Chemotypes with Activity against Plasmodium falciparum and Trypanosoma cruzi” (Pharmaceuticals, 2021)

Key:
HepG2 cells = test: HepG2 cell toxicity assay (alamarBlue); type: cell-based, human; settings: 2 days; minimum value of the 95% CI, except BNZ (mean (SD))
Method: (§1) Human erythrocytes were purified from B+ Rh+ blood samples and maintained at 4 °C in incomplete RPMI medium. Vero (green monkey kidney epithelial cells), LLC-MK2 (Rhesus monkey kidney epithelial cells), and HepG2 (human liver epithelial cells) cultures were cultivated in DMEM supplemented with 1% penicillin–streptomycin (PS) and 10% heat-inactivated fetal bovine serum (FBS) at 37 °C, 5% CO2, and >95% humidity, as described in [31]. HepG2 cells were also supplemented with 10% non-essential amino acids. Vero and MK2 cells were passaged twice per week at 1:12 ratios, while HepG2 cells were passaged at a 1:8 ratio.
(§2) Vero and HepG2 cells were detached, centrifuged, and resuspended in DMEM without phenol red. Cell viability was checked upon cell counting with trypan blue staining. Then, Vero and HepG2 cells were diluted at a concentration of 5 × 10^5 and 3.2 × 10^5 cells per mL, respectively, before adding 100 µL per well to the 96-well plate. Each run contained its own negative (untreated cells) and positive (medium alone) controls. Plates were incubated at 37 °C for 4 days in the case of Vero, or 2 in the case of HepG2 cells. Assay readout was made by adding 50 µL per well of a PBS solution containing 10% alamarBlue reagent (Thermo Fisher Scientific); then, plates were incubated for another 6 h at 37 °C, before recording the fluorescence intensity with a Tecan Infinite M Nano+ reader (excitation: 530 nm, emission: 590 nm).
(§3) Absorbance values derived from the anti-T. cruzi assays and fluorescence values from the anti-P. falciparum and cell toxicity assays were normalized to the controls. In the primary screening at three fixed doses, the compounds’ inhibitory activity was expressed as a percentage of the negative control (100% parasitic growth). In dose–response assays, the compounds’ IC50 and TC50 values were determined with GraphPad Prism 7 software (version 7.00, 2016), using a non-linear regression analysis model defined by the following equation: Y=100 ÷(1+10^((LogIC50−X)×HillSlope))

P. falciparum 3D7 = test: P. falciparum dose-response growth inhibition assay (FACS, SYTO 11); type: cell-based; settings: P. falciparum 3D7, 48 h, mean (SD)
Method: Apicomplexan parasite cultures were maintained at 3% hematocrit under an atmosphere of 37 °C in 93% N2, 5% CO2, and 2% O2, following standard methods. Synchronized cultures were obtained via 5% sorbitol lysis.
P. falciparum growth was primarily analyzed under 3 different concentrations ([…]) of the 81 compounds. Conditions were tested in triplicate for every concentration, and the test was repeated when the standard deviation was above 10% for any concentration. Z-values varied between 0.83 and 0.98 in the different plates analyzed. Selected compounds (12.3% potential hit rate) were further analyzed via standard growth inhibition assays, carried out as previously described in [54]. Briefly, parasitemia was adjusted to 1–1.3%, with >90% rings after sorbitol synchronization. Two hundred microliters of parasite culture were plated in 96-well microplates and incubated for 48 h at 37 °C in the presence of decreasing concentrations of the tested compounds, in triplicate. Parasitemia was determined by fluorescence-assisted cell sorting (FACS). Non-infected RBCs and samples containing parasitized RBCs (including controls with DMSO as carrier solvent) were diluted in PBS to a final concentration of ~1–10 × 10^6 cells/mL. The cell suspension was stained with SYTO 11 (0.5 mM stock in DMSO, Thermo Fisher Scientific, Waltham, MA, USA), to a final concentration of 0.5 μM. Samples were analyzed in a Becton Dickinson FACSCalibur. Sample excitation was carried out using a 488-nm, air-cooled argon-ion laser at a power of 15 mW, using forward and side scatter to gate the RBC population, and SYTO 11 green fluorescence (530 nm, FITC filter) was collected in a logarithmic scale. The single-cell population was selected on a forward–side scattergram, and the green fluorescence from this population was analyzed. Parasitemia was expressed as the number of parasitized cells per 100 erythrocytes.
as §3

Vero cells = test: Vero cell toxicity assay (alamarBlue); type: cell-based, green monkey; settings: 4 days; minimum value of the 95% CI, except BNZ (mean (SD))
Method: as §1, §2, §3

With `c1ccc(CCn2c(-c3ccccc3)nc3c(OCc4ccccc4)ncnc32)cc1` [Compound 6g] the “HepG2 Cells TC50” value (HepG2 cells) was greater than 300 µM, the IC50 (P. falciparum 3D7) was 19.1 µM and the “Vero Cells TC50” value (Vero cells) was greater than 150 µM.
In the case of `CC(C)(C)n1c(-c2ccccc2)nc2c(OCc3ccccc3)ncnc21` [Compound 6D], the “HepG2 Cells TC50” value (HepG2 cells) is reported as greater than 200 µM, the IC50 (P. falciparum 3D7; Plasmodium falciparum, 3D7, 48 h) is reported as 18.9 µM and the “Vero Cells TC50” value (Vero cells) is reported as greater than 150 µM.
In the case of `COC(=O)c1ccccc1-n1cc(COc2ncnc3c2nc(-c2ccccc2)n3N(C)C)nn1` [Compound 34], the “Vero Cells TC50” value (Vero cells) is reported as greater than 6000 µM.
